Test results reported in the NIST ThermoML archive (doi:10.1016/j.tca.2009.10.001).

Columns and labels:
[1] = xn = mol fraction of the nth substance listed; conditions: 101 kPa, Liquid, x1 = 1; for viscosity: Capillary tube (Ostwald / Ubbelohde) method; for speed of sound: Linear variable-path acoustic interferometer; for mass density: Pycnometric method
[2] = Liquid; for viscosity: Capillary tube (Ostwald / Ubbelohde) method; for speed of sound: Linear variable-path acoustic interferometer; for mass density: Pycnometric method

Cc1ccccc1 [toluene] + CCC#N
[1]
Conditions | mass density [kg/m3] | speed of sound [m/s] | viscosity [mPa·s]
298.15 K | 860.9 | 1299.8 | 0.5635
303.15 K | 856 | 1279.5 | 0.5344
308.15 K | 851.6 | 1260.7 | 0.5091

Cc1ccccc1 [toluene]
[2], 101 kPa
Conditions | mass density [kg/m3] | speed of sound [m/s] | viscosity [mPa·s]
298.15 K | 860.9 | 1299.8 | 0.5635
303.15 K | 856 | 1279.5 | 0.5344
308.15 K | 851.6 | 1260.7 | 0.5091

CCC#N [propanenitrile]
[2], 101.33 kPa
Conditions | mass density [kg/m3] | speed of sound [m/s] | viscosity [mPa·s]
298.15 K | 775.4 | 1252.4 | 0.4107
303.15 K | 769.9 | 1232.7 | 0.3991
308.15 K | 765.2 | 1213.7 | 0.3822

CCCC#N [butanenitrile]
[2], 101.33 kPa
Conditions | mass density [kg/m3] | speed of sound [m/s] | viscosity [mPa·s]
298.15 K | 784.7 | 1271.4 | 0.5463
303.15 K | 780.3 | 1252.2 | 0.5255
308.15 K | 775.9 | 1233.9 | 0.5049

CC#N [acetonitrile]
[2], 101.33 kPa
Conditions | mass density [kg/m3] | speed of sound [m/s] | viscosity [mPa·s]
298.15 K | 775.3 | 1271.3 | 0.3696
303.15 K | 769.9 | 1251.9 | 0.3554
308.15 K | 764.7 | 1231.7 | 0.3414

Cc1ccccc1 [toluene] + CC#N
[1]
Conditions | mass density [kg/m3] | speed of sound [m/s] | viscosity [mPa·s]
298.15 K | 860.9 | 1299.8 | 0.5635
303.15 K | 856 | 1279.5 | 0.5344
308.15 K | 851.6 | 1260.7 | 0.5091

Cc1ccccc1 [toluene] + CCCC#N
[1]
Conditions | mass density [kg/m3] | speed of sound [m/s] | viscosity [mPa·s]
298.15 K | 860.9 | 1299.8 | 0.5635
303.15 K | 856 | 1279.5 | 0.5344
308.15 K | 851.6 | 1260.7 | 0.5091
